Test results: publication PMC8165744, “Identification of an Alternative Glycyrrhizin Metabolite Causing Liquorice-Induced Pseudohyperaldosteronism and the Development of ELISA System to Detect the Predictive Biomarker” (Frontiers in Pharmacology, 2021)

Assays:
human OAT1 = biological target: T1, human OAT1 (Homo sapiens, UniProt Q4U2R8); assay: uptake into HEK293 cells transfected with OAT1; assay type: in vitro ADME; conditions: HEK293, EHBR plasma, 37°C, 15 min
T1 construct: expressed in transfected cells; host or cells: HEK293 cells, pCI-neo vector
T1 sequence (Q4U2R8 1-563): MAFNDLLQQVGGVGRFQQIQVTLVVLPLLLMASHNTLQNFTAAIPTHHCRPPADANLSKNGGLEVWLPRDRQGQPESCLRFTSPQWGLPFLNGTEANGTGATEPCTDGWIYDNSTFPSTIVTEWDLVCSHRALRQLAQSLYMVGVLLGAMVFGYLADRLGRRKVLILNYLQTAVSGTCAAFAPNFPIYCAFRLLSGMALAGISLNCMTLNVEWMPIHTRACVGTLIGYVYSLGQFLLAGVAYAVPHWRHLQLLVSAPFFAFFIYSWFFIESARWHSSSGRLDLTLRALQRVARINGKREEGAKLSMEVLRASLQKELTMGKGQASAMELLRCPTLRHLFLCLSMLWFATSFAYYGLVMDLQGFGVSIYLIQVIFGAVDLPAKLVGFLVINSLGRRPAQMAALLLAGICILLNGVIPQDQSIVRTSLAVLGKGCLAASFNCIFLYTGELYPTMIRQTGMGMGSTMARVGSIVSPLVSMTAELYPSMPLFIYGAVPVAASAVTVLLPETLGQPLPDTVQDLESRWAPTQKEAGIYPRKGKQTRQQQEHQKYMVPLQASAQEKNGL
Description: Uptake of Compound 4 by Rat Kidney Slices and Cells Expressing OAT1 and 3
For the uptake study of 4 into rat kidney slices, we used the samples obtained in our previous study ([Ishiuchi et al., 2019]). For the uptake study of 4 into the cells transiently expressing OAT1 and OAT3, we used the same protocol as in our previous study ([Makino et al., 2012]). cDNAs encoding human OAT1 and OAT3 inserted into pGH19 were generously supplied by Prof. Mitsuru Sugawara (Hokkaido University, Sapporo, Japan), and then subcloned into a pCI-neo mammalian expression vector (Promega, Madison, WI, United States). We used the same pooled plasma of male EHBRs orally treated with GA for 12 h used in our previous study ([Ishiuchi et al., 2019]).
FIGURE 2 Inhibitory effects of compound 4 on type-2 11β-hydroxysteroid dehydrogenase (11β-HSD2) using rat kidney microsome (A), and the uptake of 4 into rat kidney slices (B) or into HEK293 cells transfected with organic anion transporter (OAT) 1 (C) or OAT3 (D). […] Then, the amount of [^3H] cortisol was measured. […] Concentrations of 4 in kidney slice homogenates were measured using liquid chromatography-tandem mass spectrometry (LC-MS/MS). **p < 0.01 vs 4°C group using Student’s t-test (C) Male EHBRs were orally treated with GA (200 mg/kg) and their plasma samples were collected […] after treatment. […] Then, concentrations of 4 in cells were measured using LC-MS/MS. […]

[1] = measurement of GL metabolites in human serum and urine samples (LC-MS/MS); assay type: in vivo
Protocol: Measurement of Compound 4 in Human Serum Samples
Human serum samples (100 µl) were pre-treated as described in the protocol reported in our previous study ([Takahashi et al., 2019]), and the concentration of 4 was measured using LC-tandem mass spectrometry (MS/MS) as described below. This study was conducted with the approval of the appropriate ethics committee at Keio University, Chiba University, Kanazawa University, and Kameda Medical Center.
Briefly, after diluting serum and urine samples with water to obtain suitable concentrations, they were digested with subtilisin (0.91 U/ml), followed by the addition of astragaloside IV (used as an internal standard; Fujifilm Wako Pure Chemicals, Osaka, Japan), and deproteinized using 80% ethanol. […] The transitions (precursor to daughter) monitored and retention times were as follows: ESI(+), 743.4 to 567.5 m/z (35 and 25 V for cone voltage and collision energy, respectively) for compound 1 (8.1 min); ESI(–), 565.5 to 96.5 m/z (80 and 60 V) for 2 (9.6 min); ESI(–), 549.5 to 96.5 m/z (80 and 60 V) for 3 (15.4 min); ESI(+), 727.3 to 551.2 m/z (30 and 25 V) for 4 (11.3 min); ESI(+), 647.6 to 453.6 m/z (40 and 20 V) for 3MGA (15.0 min); ESI(+), 471.3 to 91.0 m/z (40 and 20 V) for GA (13.4 min); ESI(+), 823.5 to 453.6 m/z (30 and 20 V) for GL (18.4 min); and ESI(+), 785.4 to 143.0 m/z (30 and 20 V) for astragaloside IV (3.0 min). Linear regressions over the concentration range of 2 nM to 2 µM for each compound were examined using the peak-area ratio of the compounds to their internal standards and the least-squares method (r ^ 2 > 0.98). The detection limits for 1, GL, and GA were 6.4 nM, and those for 2, 3, and 4, and 3MGA were 3.2 nM.

Q: For CC1(C)[C@@H](OS(=O)(=O)O)CC[C@]2(C)[C@H]3C(=O)C=C4[C@@H]5C[C@@](C)(C(=O)O[C@@H]6O[C@H](C(=O)O)[C@@H](O)[C@H](O)[C@H]6O)CC[C@]5(C)CC[C@@]4(C)[C@]3(C)CC[C@@H]12 [Compound 4, 18β-glycyrrhetyl-3-O-sulfate-30-O-glucuronide], which “uptake into cells expressing OAT1 vs mock cells” value (human OAT1) is on record?
A: significantly higher

Q: What about the “serum concentration of 4 relative to that of 3 (fold lower)” value ([1]; human serum, patients with suspected pseudohyperaldosteronism) of the same compound?
A: approximately 10 fold

Q: And the concentration in urine ([1]; human, one urine sample among 20 available samples)?
A: 3 nM

Q: What about the “number of serum samples in which compound was detected” value ([1]; of 70 participants taking liquorice-containing herbal preparations) of the same compound?
A: 62 samples
